How the values were obtained:
Experiment in all cases: microbe, parasite or virus in culture
Format in all cases: cell-based
A/HK/1/68 (H3N2) = conditions: Influenza A virus, H3N2, MDCK, 168 h
A/TX/36/91 (H1N1) = conditions: Influenza A virus, H1N1, MDCK, 168 h
A/Perth/265/09 (H1N1) = conditions: Influenza A virus, H1N1, MDCK, 168 h

`CC(=O)N[C@H]1[C@H]([C@H](O)[C@H](O)CO)OC(C(=O)O)=C[C@@H]1N=C(N)N` [Zanamivir] was tested, and the EC50 (A/HK/1/68 (H3N2)) was 27.7 µM, the EC50 (A/TX/36/91 (H1N1)) was 0.731 µM and the EC50 (A/Perth/265/09 (H1N1)) was 1.52 µM.

Reference: patent publication US10966954B2, “Electrophilically enhanced phenolic compounds for treating inflammatory related diseases and disorders” (priority 2016, dated 2021)
